From patent publication US9820943B2, “Micronized amoxicillin” (DSM SINOCHEM PHARMACEUTICALS NETHERLANDS B.V., priority 2013, dated 2017)

Assays:
Type in all cases: physicochemical
[1] = Specific powder surface area by nitrogen gas sorption (BET); settings: triplicate, trihydrate
Protocol: Specific powder surface area was determined using nitrogen gas sorption (Smartsorb, Smart Instruments, Mumbai, India). Prior to measurements, samples were regenerated by degassing to remove moisture and contamination. The regenerated sample was dipped in liquid nitrogen and the quantity of the adsorbed gas was measured using a thermal conductivity detector and subsequently integrated using an electronic circuit in terms of counts. The instrument was calibrated by injecting a known quantity of nitrogen. The measured parameters were subsequently used to calculate the surface area of the sample by employing the adsorption theories of Brunauer, Emmett and Teller (BET).
(§1) Parameters operated were: • Augar Speed: 5-90 rpm • Primary Air Pressure: 2-8 kg·cm^−2 • Secondary Air Pressure: 4-10 kg·cm^−2 The surface area (in triplicate), average particle size and contact angle (in quadruplicate) were determined as outlined in the General section. The purity of the amoxicillin trihydrate samples was 99.4±0.3% and were void of dichloromethane, isopropanol, pivalic acid and triethyl amine.

[2] = Particle size distribution by laser diffraction (Malvern); settings: trihydrate
Protocol: Particle size distribution values D10, D50, D90 and D100 were determined using laser diffraction applying Malvern equipment. A suitable apparatus for determining D10, D50, D90 and D100 is a Malvern particle sizer 2600 C or a Malvern Zeta Sizer.
as §1

[3] = Contact angle by sessile drop method (water); settings: ambient conditions, trihydrate
Protocol: Contact angles of amoxicillin trihydrate powder samples were measured by the sessile drop method using an Drop Shape Analyzer instrument (FTA 1000, First Ten Angstrom, Virginia, USA). Powder samples were mounted on double sided adhesive tape adhered to a glass slide and excess powder was removed by tapping the slide. A drop of probe liquid (water) was dispersed onto the sample surface and video images were captured by the FTA image analyzer. The contact angle was calculated by the instrument by fitting a mathematical expression to the shape of the drop followed by calculating the slope of the tangent to the drop at the liquid-solid-vapor interface line. The surface tension of ultrapure ELGA laboratory water was measured to be 73±0.5 mN·m^−1 at 25° C. All measurements were performed in air under ambient conditions and an average of four measurements was reported in the below Examples.
as §1

[4] = Powder dissolution, USP/NF paddle method with HPLC analysis; settings: 500 mg in 900 mL water, 37 °C, 75 rpm; for Amoxicillin released in solution Mean: mean of 3; for Amoxicillin released in solution #1: replicate #1; for Amoxicillin released in solution #2: replicate #2; for Amoxicillin released in solution #3: replicate #3
Protocol: Dissolution analysis of amoxicillin trihydrate powder samples was carried out using the USP/NF paddle method at a rotational speed of 75 rpm. Ultrapure ELGA laboratory water (900 mL) was used as dissolution medium. Media were equilibrated to 37.0±0.5° C. prior to dissolution. Amoxicillin trihydrate sample powder (500 mg) was directly added to the dissolution apparatus (Electrolab USP-24, India). Samples were collected at 0, 1, 3, 5, 10, 15, 30, 60 and 90 min, filtered through 0.2 μm filters and analyzed by HPLC. Dissolution profiles were constructed by plotting the percentage amoxicillin released against time.
The HPLC system (Shimadzu Corporation, Kyoto, Japan) comprised of an SCL-10A VP system controller, LC-10AT VP liquid chromatograph, FCV-10AL VP flow control valve, DGU-14A degasser, SIL-10AD VP auto-injector, CTO-10AS VP column oven, SPD-M20A prominence diode array (PDA) detector and data acquisition Class-VP 6.10 software. The HPLC method was adopted from the United States Pharmacopoeia (USP). The method was validated for linearity, precision, accuracy and intra- and inter-day variability. The mobile phase was 50 mM monobasic potassium phosphate:methanol (96:4, v/v, pH 5.0). All analyses were carried out using Lichrospher® 100 RP-18e analytical column (5 μm, Merck KGaA, Darmstadt, Germany) under isocratic conditions at a flow rate of 1.0 mL·min^−1 at 25° C. with 20 μL injection volume. Effluent was monitored at a wavelength of 230 nm. Samples for calibration curve generation were prepared in 50 mM monobasic potassium phosphate:methanol 1:1 (v/v) proportion at a concentration range of 1 to 600 μg·mL^−1.
The three non-micronized (i.e. entries 1-3 of Table 1) and micronized (i.e. entries 4-6 of Table 1) amoxicillin trihydrate samples of Example 1 were subjected to a powder dissolution test (in triplicate) as outlined in the General section.

In the case of `CC1(C)S[C@@H]2[C@H](NC(=O)[C@H](N)c3ccc(O)cc3)C(=O)N2[C@H]1C(=O)O.O.O.O` [entry 5, amoxicillin trihydrate], the “Surface Area Mean ± SD (n = 3)” value [1] is reported as 2.03 ± 0.15 m^2 · g^−1, the “Average Particle Size D10” value [2] is reported as 1.9 μm and the “Average Particle Size D50” value [2] is reported as 10.0 μm. The “Average Particle Size D90” value [2] was 22.5 μm, the “Average Particle Size D100” value [2] was 44.3 μm and the “Contact Angle Mean ± SD (n = 4)” value [3] was 97.89 ± 1.22. For the same compound, the “Amoxicillin released in solution Mean” value ([4]; 0 min) was 0%, the “Amoxicillin released in solution #1” value ([4]; 0 min) was 0% and the “Amoxicillin released in solution #2” value ([4]; 0 min) was 0%. The “Amoxicillin released in solution #3” value ([4]; 0 min) was 0%, the “Amoxicillin released in solution Mean” value ([4]; 1 min, trihydrate) was 59.93% and the “Amoxicillin released in solution #1” value ([4]; 1 min, trihydrate) was 58.56%. The “Amoxicillin released in solution #2” value ([4]; 1 min, trihydrate) was 62.91%, the “Amoxicillin released in solution #3” value ([4]; 1 min, trihydrate) was 58.32% and the “Amoxicillin released in solution Mean” value ([4]; 3 min, trihydrate) was 77.98%. For the same compound, the “Amoxicillin released in solution #1” value ([4]; 3 min, trihydrate) was 78.61%, the “Amoxicillin released in solution #2” value ([4]; 3 min, trihydrate) was 80.12% and the “Amoxicillin released in solution #3” value ([4]; 3 min, trihydrate) was 75.20%. The “Amoxicillin released in solution Mean” value ([4]; 5 min, trihydrate) was 82.14%, the “Amoxicillin released in solution #1” value ([4]; 5 min, trihydrate) was 83.91% and the “Amoxicillin released in solution #2” value ([4]; 5 min, trihydrate) was 82.77%. The “Amoxicillin released in solution #3” value ([4]; 5 min, trihydrate) was 79.73%, the “Amoxicillin released in solution Mean” value ([4]; 10 min, trihydrate) was 86.84% and the “Amoxicillin released in solution #1” value ([4]; 10 min, trihydrate) was 89.18%. For the same compound, the “Amoxicillin released in solution #2” value ([4]; 10 min, trihydrate) was 88.59%, the “Amoxicillin released in solution #3” value ([4]; 10 min, trihydrate) was 82.76% and the “Amoxicillin released in solution Mean” value ([4]; 15 min, trihydrate) was 89.32%. For the same compound, the “Amoxicillin released in solution #1” value ([4]; 15 min, trihydrate) was 90.98%, the “Amoxicillin released in solution #2” value ([4]; 15 min, trihydrate) was 92.05% and the “Amoxicillin released in solution #3” value ([4]; 15 min, trihydrate) was 84.94%. The “Amoxicillin released in solution Mean” value ([4]; 30 min, trihydrate) was 96.72%, the “Amoxicillin released in solution #1” value ([4]; 30 min, trihydrate) was 94.78% and the “Amoxicillin released in solution #2” value ([4]; 30 min, trihydrate) was 99.20%. The “Amoxicillin released in solution #3” value ([4]; 30 min, trihydrate) was 96.17%, the “Amoxicillin released in solution Mean” value ([4]; 60 min, trihydrate) was 97.60% and the “Amoxicillin released in solution #1” value ([4]; 60 min, trihydrate) was 97.29%. For the same compound, the “Amoxicillin released in solution #2” value ([4]; 60 min, trihydrate) was 99.86%, the “Amoxicillin released in solution #3” value ([4]; 60 min, trihydrate) was 95.65% and the “Amoxicillin released in solution Mean” value ([4]; 90 min, trihydrate) was 99.15%. The “Amoxicillin released in solution #1” value ([4]; 90 min, trihydrate) was 99.33%, the “Amoxicillin released in solution #2” value ([4]; 90 min, trihydrate) was 99.64% and the “Amoxicillin released in solution #3” value ([4]; 90 min, trihydrate) was 98.47%.
With `CC1(C)S[C@@H]2[C@H](NC(=O)[C@H](N)c3ccc(O)cc3)C(=O)N2[C@H]1C(=O)O.O.O.O` [entry 6, amoxicillin trihydrate] the “Surface Area Mean ± SD (n = 3)” value [1] was 1.69 ± 0.07 m^2 · g^−1, the “Average Particle Size D10” value [2] was 1.9 μm and the “Average Particle Size D50” value [2] was 10.0 μm. The “Average Particle Size D90” value [2] was 22.4 μm, the “Average Particle Size D100” value [2] was 38.9 μm and the “Contact Angle Mean ± SD (n = 4)” value [3] was 107.84 ± 1.72. The “Amoxicillin released in solution Mean” value ([4]; 0 min) was 0%, the “Amoxicillin released in solution #1” value ([4]; 0 min) was 0% and the “Amoxicillin released in solution #2” value ([4]; 0 min) was 0%. For the same compound, the “Amoxicillin released in solution #3” value ([4]; 0 min) was 0%, the “Amoxicillin released in solution Mean” value ([4]; 1 min, trihydrate) was 70.68% and the “Amoxicillin released in solution #1” value ([4]; 1 min, trihydrate) was 70.98%. For the same compound, the “Amoxicillin released in solution #2” value ([4]; 1 min, trihydrate) was 72.37%, the “Amoxicillin released in solution #3” value ([4]; 1 min, trihydrate) was 68.67% and the “Amoxicillin released in solution Mean” value ([4]; 3 min, trihydrate) was 79.56%. The “Amoxicillin released in solution #1” value ([4]; 3 min, trihydrate) was 82.73%, the “Amoxicillin released in solution #2” value ([4]; 3 min, trihydrate) was 76.25% and the “Amoxicillin released in solution #3” value ([4]; 3 min, trihydrate) was 79.68%. For the same compound, the “Amoxicillin released in solution Mean” value ([4]; 5 min, trihydrate) was 82.60%, the “Amoxicillin released in solution #1” value ([4]; 5 min, trihydrate) was 84.40% and the “Amoxicillin released in solution #2” value ([4]; 5 min, trihydrate) was 78.46%. The “Amoxicillin released in solution #3” value ([4]; 5 min, trihydrate) was 84.94%, the “Amoxicillin released in solution Mean” value ([4]; 10 min, trihydrate) was 85.67% and the “Amoxicillin released in solution #1” value ([4]; 10 min, trihydrate) was 85.63%. For the same compound, the “Amoxicillin released in solution #2” value ([4]; 10 min, trihydrate) was 82.85%, the “Amoxicillin released in solution #3” value ([4]; 10 min, trihydrate) was 88.53% and the “Amoxicillin released in solution Mean” value ([4]; 15 min, trihydrate) was 88.11%. For the same compound, the “Amoxicillin released in solution #1” value ([4]; 15 min, trihydrate) was 87.94%, the “Amoxicillin released in solution #2” value ([4]; 15 min, trihydrate) was 85.45% and the “Amoxicillin released in solution #3” value ([4]; 15 min, trihydrate) was 90.95%. For the same compound, the “Amoxicillin released in solution Mean” value ([4]; 30 min, trihydrate) was 96.85%, the “Amoxicillin released in solution #1” value ([4]; 30 min, trihydrate) was 96.08% and the “Amoxicillin released in solution #2” value ([4]; 30 min, trihydrate) was 96.66%. For the same compound, the “Amoxicillin released in solution #3” value ([4]; 30 min, trihydrate) was 97.81%, the “Amoxicillin released in solution Mean” value ([4]; 60 min, trihydrate) was 99.37% and the “Amoxicillin released in solution #1” value ([4]; 60 min, trihydrate) was 99.56%. For the same compound, the “Amoxicillin released in solution #2” value ([4]; 60 min, trihydrate) was 98.85%, the “Amoxicillin released in solution #3” value ([4]; 60 min, trihydrate) was 99.69% and the “Amoxicillin released in solution Mean” value ([4]; 90 min, trihydrate) was 98.76%. For the same compound, the “Amoxicillin released in solution #1” value ([4]; 90 min, trihydrate) was 97.01%, the “Amoxicillin released in solution #2” value ([4]; 90 min, trihydrate) was 99.48% and the “Amoxicillin released in solution #3” value ([4]; 90 min, trihydrate) was 99.78%.
